Reference: US8414879B2, “Superporous hydrogel with cells encapsulated therein and method for producing the same” (The Board of Trustees of the University of Illinois, priority 2008, dated 2013)
Like-named read-outs stand apart in the source and are kept apart here.

Columns and labels:
[1] = system: cells
Experimental: Effect of Hydrogel Precursor Solution Components on Cell Viability. Cells (10^5 cells/mL) were plated on 48-well plates and were allowed to adhere to the plates overnight. […] The pH of one solution was adjusted to 5 (using […]) and that of the other solution was adjusted to 8 (using 1 M NaOH). […] The treatment groups were compared to untreated controls where cells were incubated with media. […] To this, 30 μL of MTS test reagent was added. Cells were then incubated with MTS test reagent for 3 hours and absorbance recorded at 490 nm on a UV plate reader.
(§1) Specifically, cells were treated with 0.05% to 1.5% (w/v) APS at pH 5 for 10 minutes or 0.05% to 1.5% (w/v) APS at pH 8 for 24, 48, or 72 hours and compared to controls in a MTS test and LIVE/DEAD cell assay. Similarly, cells were treated with 0.05% to 0.90% (w/v) TEMED at pH 5 for 10 minutes or 0.05% to 0.90% (w/v) TEMED at pH 8 for 24, 48, or 72 hours and compared to controls in a MTS test and LIVE/DEAD cell assay. Likewise, cells were treated with 0.05% to 1.0% (w/v) F-127 at pH 5 for 10 minutes or 0.05% to 1.0% (w/v) F-127 at pH 8 for 24, 48, or 72 hours and compared to controls in a MTS test and LIVE/DEAD cell assay.
(§2) Treatment groups were compared to untreated controls in both a MTS test and LIVE/DEAD cell assay.
(§3) The suspension in the test tube was allowed to stand for 5 minutes. Cells were treated with the supernatant for 10 minutes or 24, 48, or 72 hours. The saturated solution was aspirated from the wells, cells were washed and analyzed with the MTS test and LIVE/DEAD cell assay.
(§4) The effects of precursor solution constituents on cell viability were analyzed over a 72 hour period. The experiments were designed based on the conditions that the cells would be exposed to during the fabrication of superporous hydrogels; i.e., exposure to each constituent of SPH individually at pH of 5 for 10 minutes and thereafter for 24, 48 and 72 hours at pH of 8. […] 96 AQUEOUS ONE® solution Cell Proliferation Assay (MTS) and LIVE/DEAD cell assay were used to determine the effect of each of the constituents on cell viability.

[2] = system: cells; assay: Effect of precursor solution components, LIVE/DEAD cell assay
Experimental: LIVE/DEAD cell assay was used to visualize live and dead cells (Gaugain, et al. (1978) Biochemistry 17:5071-8; Gaugain, et al. (1978) Biochemistry 17:5078-88). […] To the resuspended cells was added 100 μL of calcein-AM/ethidium homodimer stain (stock solutions of the dyes were prepared as per manufacturer's protocol-Molecular Probes). Cells were incubated for 30 minutes and images were captured of both treatment and control groups using a fluorescence microscope.
as §1, §2, §3, §4

[3] = system: gingival fibroblasts; settings: cited from earlier work
[4] = system: cells; assay: Effect of physical foaming (nitrogen gas/compressed air) on cell viability; assay type: cell-based
Experimental: Effect of Physical Foaming on Cell Viability. Cells (10^5 cells/mL) were suspended in media and treated with the precursor solution used in fabrication of superporous hydrogels. […] The precursor solution was then exposed to UV for 3.5 minutes. In one treatment group nitrogen gas/compressed air was applied to the top of the cells at 200 psi for 2 minutes at a flow rate of 4000 mL/minute. In a second treatment group, nitrogen gas/compressed air was applied from below the cells suspended in the Buchner funnel at 200 psi for 2 minutes at a flow rate of 4000 mL/minute. Thereafter, each of the groups was exposed to UV at 5 mW/cm^2 for 3 minutes, washed twice with DPBS containing Ca and Mg, resuspended in fresh media and transferred to a 48-well plate. Cells were incubated for 24, 48 and 72 hours and cell viability was determined via the MTS test and LIVE/DEAD cell assay.

[5] = system: cells; settings: cells in media at pH 5, 10 minutes, MTS and LIVE/DEAD
Experimental: A third group was the untreated controls. At the end of 10 minutes, the cells were washed, resuspended in fresh media, and analyzed with the MTS test reagent and LIVE/DEAD cell assay.

Compound `N.N.O=S(=O)(O)OOS(=O)(=O)O` [APS, Ammonium persulphate] has a cell viability ([1]; 0.05% APS, MTS) of 60%, a viable cells ([1]; 0.70% APS, 10 minutes, pH 5, MTS) of 21.25±9.6% and a viable cells ([1]; 0.70% APS, 24 hours, pH 8, MTS) of 16.83±4.8%. The viable cells ([1]; 0.70% APS, 48 hours, pH 8, MTS) was 14.8±6.8%, the viable cells ([1]; 0.70% APS, 72 hours, pH 8, MTS) was 11.63±0.3% and the toxicity ([1]; APS 0.05% to 1.5%, 10 minutes, 24, 48 and 72 hours) was “toxic to cells at all concentrations tested”. For the same compound, the live/dead cells ([2]; 0.05% APS) was “the cells were dead” and the live/dead cells ([2]; APS, end of each incubation period) was “dead cells at the end of each of the incubation periods”.
In the case of `CN(C)CCN(C)C` [TEMED, N,N,N′,N′-tetramethylethylenediamine], the viable cells ([1]; 0.90% TEMED, 10 minutes, pH 5, MTS) was 108.59±1.23%, the viable cells ([1]; 0.90% TEMED, 24 hours, pH 8, MTS) was 30.63±5.51% and the viable cells ([1]; 0.90% TEMED, 48 hours, pH 8, MTS) was 20.41±6.92%. The viable cells ([1]; 0.90% TEMED, 72 hours, pH 8, MTS) was 18.53±12.82%, the toxicity ([1]; TEMED 0.05% to 0.90%, 10 minutes) was “no significant toxicity” and the toxicity ([1]; TEMED all concentrations, 24, 48 and 72 hours) was “toxicity observed at all concentrations”. The live/dead cells ([2]; TEMED all concentrations, 10 minutes) was “cells were alive” and the live/dead cells ([2]; TEMED, longer time periods) was “they were dead”.
In the case of `O=C(O)CC(O)(CC(=O)O)C(=O)O` [citric acid], the viable cells ([1]; 10 min, 2.4 % (w/v), pH 5) was “about 99.7±11.6%”, the viable cells ([1]; 24 h, 2.4 % (w/v), pH 8) was 28.95±5.70% and the viable cells ([1]; 48 h, 2.4 % (w/v), pH 8) was 15.81±1.80%. The viable cells ([1]; 72 h, 2.4 % (w/v), pH 8) was 16.20±6.81%, the cell death ([3]; 47.6 mM (pH 2.3) in water, within three minutes) was “complete cell death” and the “inhibition of attachment and spreading of fibroblasts on Type I collagen” value ([3]; medium containing 11.9 mM) was 22%. For the same compound, the “inhibition of attachment and spreading of fibroblasts on culture plates” value ([3]; medium containing 11.9 mM) was 58% and the “inhibition of protein synthesis” value ([3]; within three hours of incubation) was 0.28%.
For `N#N` [nitrogen gas under pressure], the “cell death over 72 hours” value ([4]; cells washed and plated for 24, 48 and 72 hours after foaming) was “cell death observed over 72 hours” and the “cell death compared to untreated controls” value ([4]; determined immediately after treating cells) was “approximately 20%”.
For `[Na+].[OH-]` [sodium hydroxide], the “cell death on sudden pH change from acidic to alkaline” value [5] was “a significant amount of cell death”.
